Experimental data from ChEMBL document CHEMBL1201862, “PubChem BioAssay data set” (2004).
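Briefly, cells in 96-well plates were exposed to five compound concentrations for 48 h, and endpoints were estimated by linear interpolation. GI50 = concentration required for 50% inhibition of growth.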 Active and inactive are the calls of the source. No stated cut-off is given here; in the data, active = GI50 up to about 1.1 µM and inactive = higher.

Assays:
Test in all cases: inhibition of tumour cell growth, NCI panel, 48 h
HT-29 = test system: HT-29
SW-620 = test system: SW-620
TK-10 = test system: TK-10
HOP-62 = test system: HOP-62
MCF7 = test system: MCF7
IGROV-1 = test system: IGROV-1
BT-549 = test system: BT-549
M14 = test system: M14
A549 = test system: A549
NCI-H23 = test system: NCI-H23
MOLT-4 = test system: MOLT-4
HCT-116 = test system: HCT-116
CCRF-CEM = test system: CCRF-CEM
MDA-N = test system: MDA-N
COLO 205 = test system: COLO 205
RXF 393 = test system: RXF 393
MDA-MB-231 = test system: MDA-MB-231
Hs-578T = test system: Hs-578T
OVCAR-5 = test system: OVCAR-5
SK-MEL-28 = test system: SK-MEL-28

Row | SMILES | GI50 (HT-29) | GI50 (SW-620) | GI50 (TK-10) | GI50 (HOP-62) | GI50 (MCF7) | GI50 (IGROV-1) | GI50 (BT-549) | GI50 (M14) | GI50 (A549) | GI50 (NCI-H23) | GI50 (MOLT-4) | GI50 (HCT-116) | GI50 (CCRF-CEM) | GI50 (MDA-N) | GI50 (COLO 205) | GI50 (RXF 393) | GI50 (MDA-MB-231) | GI50 (Hs-578T) | GI50 (OVCAR-5) | GI50 (SK-MEL-28)
1 | COc1cc([C@@H]2c3cc4c(cc3C[C@@H]3COC(=O)C32)OCO4)cc(OC)c1O (stereo partly drawn) | 0.034 µM (active) | 0.0306 µM (active) | 0.039 µM (active) | 0.03 µM (active) | 0.017 µM (active) | 0.0254 µM (active) | 0.038 µM (active) | 0.0344 µM (active) | 0.0668 µM (active) | 0.21 µM (active) | 0.0271 µM (active) | 0.0297 µM (active) | 0.0228 µM (active) | 0.0113 µM (active) | 0.0306 µM (active) | 0.0165 µM (active) |  |  |  | 
2 | Oc1[nH]c(Nc2cccc(Cl)c2)nc2ncnc1-2 | 53.7 µM (inactive) | > 100 µM (inactive) | > 100 µM (inactive) | 28.1 µM (inactive) | > 100 µM (inactive) | 80.4 µM (inactive) | > 100 µM (inactive) | 95.7 µM (inactive) | > 100 µM (inactive) | > 100 µM (inactive) | 38.6 µM (inactive) | 62.4 µM (inactive) | 71.4 µM (inactive) |  | > 100 µM (inactive) | > 100 µM (inactive) | 30.8 µM (inactive) | 68.5 µM (inactive) | > 100 µM (inactive) | 
3 | Cc1ccc(C2c3c(n(C)c(=O)n(C)c3=O)OC(N(C)C)(N(C)C)C2(F)F)cc1 (stereo not drawn) |  | > 100 µM (inactive) | > 100 µM (inactive) | > 100 µM (inactive) | > 100 µM (inactive) |  | > 100 µM (inactive) | > 100 µM (inactive) | > 100 µM (inactive) | > 100 µM (inactive) | > 100 µM (inactive) | > 100 µM (inactive) | > 100 µM (inactive) |  | > 100 µM (inactive) | > 100 µM (inactive) | > 100 µM (inactive) |  | > 100 µM (inactive) | > 100 µM (inactive)
4 | CC(C)[Si](Oc1ccc(CC2N(C(=O)c3ccc([N+](=O)[O-])cc3)C(CCc3ccccc3)CC2(C)C=O)cc1)(C(C)C)C(C)C (stereo not drawn) |  |  | > 100 µM (inactive) | 7.57 µM (inactive) |  | 7.38 µM (inactive) | 21.3 µM (inactive) |  |  | 27.8 µM (inactive) |  |  | > 100 µM (inactive) |  | > 100 µM (inactive) | 5.85 µM (inactive) | 12.9 µM (inactive) | 32 µM (inactive) | > 100 µM (inactive) | > 100 µM (inactive)
5 | CC(=O)N1CN2C(=O)CCC2c2cc(C)ccc21 (stereo not drawn) | > 100 µM (inactive) | > 100 µM (inactive) | > 100 µM (inactive) | > 100 µM (inactive) | > 100 µM (inactive) | > 100 µM (inactive) |  | > 100 µM (inactive) | > 100 µM (inactive) | > 100 µM (inactive) | > 100 µM (inactive) | > 100 µM (inactive) | > 100 µM (inactive) | > 100 µM (inactive) | > 100 µM (inactive) | > 100 µM (inactive) | > 100 µM (inactive) | > 100 µM (inactive) | > 100 µM (inactive) | > 100 µM (inactive)
6 | C=CC(C)(C)/C(=C\CO[Si](C(C)C)(C(C)C)C(C)C)C(=O)N(C)c1ccccc1I | 13.4 µM (inactive) | 12.6 µM (inactive) | 13.4 µM (inactive) | 16.3 µM (inactive) | 11.5 µM (inactive) | 15.5 µM (inactive) |  | 15.8 µM (inactive) | 10.7 µM (inactive) | 11 µM (inactive) | 9.79 µM (inactive) | 3.13 µM (inactive) | 5.79 µM (inactive) | 16.4 µM (inactive) | 16.4 µM (inactive) | 11.4 µM (inactive) | 13.3 µM (inactive) | 11.8 µM (inactive) | 13.9 µM (inactive) | 14.2 µM (inactive)
7 | CSc1nc2c(c(=O)n1C)N=C(c1ccccc1)[C@H](C(CC(=O)c1ccccc1)c1ccccc1)C(c1ccccc1)N2 (stereo partly drawn) | > 100 µM (inactive) | 26.1 µM (inactive) |  | > 100 µM (inactive) | 37.1 µM (inactive) | > 100 µM (inactive) | > 100 µM (inactive) | > 100 µM (inactive) | 31.8 µM (inactive) | > 100 µM (inactive) | 5.94 µM (inactive) | 32 µM (inactive) | 44.8 µM (inactive) | > 100 µM (inactive) | > 100 µM (inactive) | 65.6 µM (inactive) | > 100 µM (inactive) |  | > 100 µM (inactive) | > 100 µM (inactive)
8 | Cc1[nH]c2ncn(N)c(=N)c2c1Cc1ccccc1 | 67.9 µM (inactive) | > 100 µM (inactive) | > 100 µM (inactive) | 47.2 µM (inactive) | 33 µM (inactive) | 80.4 µM (inactive) | > 100 µM (inactive) | > 100 µM (inactive) | 58.3 µM (inactive) | > 100 µM (inactive) | > 100 µM (inactive) | > 100 µM (inactive) | > 100 µM (inactive) | 35.3 µM (inactive) | > 100 µM (inactive) |  | > 100 µM (inactive) |  | > 100 µM (inactive) | > 100 µM (inactive)
9 | CC1OC(=O)c2ccccc2NC1=O (stereo not drawn) | > 100 µM (inactive) | > 100 µM (inactive) | > 100 µM (inactive) | > 100 µM (inactive) |  | > 100 µM (inactive) | > 100 µM (inactive) | > 100 µM (inactive) | > 100 µM (inactive) | > 100 µM (inactive) | > 100 µM (inactive) | > 100 µM (inactive) | > 100 µM (inactive) |  | > 100 µM (inactive) | > 100 µM (inactive) | > 100 µM (inactive) | > 100 µM (inactive) | > 100 µM (inactive) | > 100 µM (inactive)
10 | CN(C(=O)C1CCCCCC1=O)c1ccccc1Cl (stereo not drawn) | > 100 µM (inactive) | > 100 µM (inactive) | > 100 µM (inactive) | > 100 µM (inactive) |  | > 100 µM (inactive) | > 100 µM (inactive) | > 100 µM (inactive) | > 100 µM (inactive) | > 100 µM (inactive) | > 100 µM (inactive) | > 100 µM (inactive) |  |  | > 100 µM (inactive) | > 100 µM (inactive) | > 100 µM (inactive) |  | > 100 µM (inactive) | > 100 µM (inactive)
11 | Cc1cn(CCCC2=NCCCN2)c(=O)[nH]c1=O | > 100 µM (inactive) | > 100 µM (inactive) | > 100 µM (inactive) | > 100 µM (inactive) | > 100 µM (inactive) | > 100 µM (inactive) |  | > 100 µM (inactive) | > 100 µM (inactive) | > 100 µM (inactive) | > 100 µM (inactive) | > 100 µM (inactive) | > 100 µM (inactive) | > 100 µM (inactive) | > 100 µM (inactive) | > 100 µM (inactive) | > 100 µM (inactive) | > 100 µM (inactive) | > 100 µM (inactive) | > 100 µM (inactive)
12 | Cc1ccccc1OC(C)C(=O)NN1C(=O)CC(=O)N(c2ccccc2)C1=S (stereo not drawn) | 76 µM (inactive) | 78.3 µM (inactive) | 63 µM (inactive) | 69.2 µM (inactive) | 42.3 µM (inactive) | 80.4 µM (inactive) | > 100 µM (inactive) | 52 µM (inactive) | 29.1 µM (inactive) | 88.1 µM (inactive) | 34 µM (inactive) | 33.4 µM (inactive) |  |  | 68.4 µM (inactive) | 61.4 µM (inactive) | > 100 µM (inactive) | > 100 µM (inactive) | > 100 µM (inactive) | > 100 µM (inactive)
13 | NC(=S)Nc1ccc(S(=O)(=O)Nc2ccc(S(N)(=O)=O)cc2)cc1 | > 100 µM (inactive) | > 100 µM (inactive) | > 100 µM (inactive) | > 100 µM (inactive) | > 100 µM (inactive) | > 100 µM (inactive) | > 100 µM (inactive) | > 100 µM (inactive) | > 100 µM (inactive) | > 100 µM (inactive) | > 100 µM (inactive) | > 100 µM (inactive) | > 100 µM (inactive) | > 100 µM (inactive) | > 100 µM (inactive) | > 100 µM (inactive) | > 100 µM (inactive) |  | > 100 µM (inactive) | > 100 µM (inactive)
14 | O=C1c2cc3c(cc2CC12Cc1ccccc1C2)CCC3 | 21.5 µM (inactive) | 45.8 µM (inactive) | 42.5 µM (inactive) | 27.8 µM (inactive) | 18.8 µM (inactive) | 38.2 µM (inactive) |  | 23.2 µM (inactive) | 44.4 µM (inactive) | 50.5 µM (inactive) | 19.9 µM (inactive) | 22.2 µM (inactive) | 30.5 µM (inactive) | 27.3 µM (inactive) | 18.6 µM (inactive) | 22.1 µM (inactive) | 23.6 µM (inactive) | 31.6 µM (inactive) | 52.6 µM (inactive) | 57.4 µM (inactive)
15 | CCOC(=O)C(O)(CC1=NC(C(=O)OC)(C(=O)OC)C(c2cccc(C=O)c2)O1)C(=O)OCC (stereo not drawn) | > 100 µM (inactive) | > 100 µM (inactive) | > 100 µM (inactive) | > 100 µM (inactive) | > 100 µM (inactive) | > 100 µM (inactive) | > 100 µM (inactive) | > 100 µM (inactive) | > 100 µM (inactive) | > 100 µM (inactive) | > 100 µM (inactive) | > 100 µM (inactive) | > 100 µM (inactive) | > 100 µM (inactive) | > 100 µM (inactive) | > 100 µM (inactive) |  |  | > 100 µM (inactive) | > 100 µM (inactive)
